Read-outs that look alike come from different tables or passages of the source.
Key:
Assay type in all cases: in vivo
[1] = tested on: nutsedge, yellow (yellow nutsedge, Cyperus esculentus); assay: Test C greenhouse herbicide test, pre- and postemergence
Outline: (§1)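 Percent-control ratings (0 none, 100 complete) came from visual comparison with controls held alongside in the greenhouse for 13–15 d. Treatments covered soil application at sowing and foliar application to young plants 2–18 cm tall.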

[2] = tested on: lambsquarters (Chenopodium album); assay: as above
Outline: as §1

[3] = tested on: ryegrass, Italian (Italian ryegrass, Lolium multiflorum); assay: as above
Outline: as §1

[4] = tested on: foxtail, giant (giant foxtail, Setaria faberii); assay: Test A greenhouse herbicide test, pre- and postemergence; conditions: for pest or weed control at 1000 g/ha: Setaria faberi, 240 h, 1000 g ai/ha
Outline: (§2)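 Visual injury ratings, 0 (no effect) to 100 (complete control), versus untreated plants after roughly 10 d in a greenhouse. Compounds, formulated in a surfactant-containing non-phytotoxic solvent, were sprayed on loam–sand soil after sowing (pre) or on one- to two-leaf plants 2–10 cm tall (post).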

[5] = tested on: pigweed (Amaranthus retroflexus); assay: as above; conditions: for pest or weed control at 1000 g/ha: Amaranthus retroflexus, 240 h, 1000 g ai/ha
Outline: as §2

[6] = tested on: wheat (Triticum aestivum); assay: as above; conditions: for plant injury at 1000 g/ha: Triticum aestivum, 240 h, 1000 g ai/ha
Outline: as §2

corn (Zea mays) = assay: as above
Outline: as §2

[7] = tested on: barnyardgrass (Echinochloa crus-galli); assay: as above; conditions: for pest or weed control at 1000 g/ha: Echinochloa crus-galli, 240 h, 1000 g ai/ha
Outline: as §2

[8] = tested on: ragweed (common ragweed, Ambrosia elatior); assay: as above
Outline: as §2

kochia (Kochia scoparia) = assay: as above
Outline: as §2

[9] = tested on: ryegrass, Italian (Italian ryegrass, Lolium multiflorum); assay: as above
Outline: as §2

[10] = Preemergence, 31 g ai/ha, scale 0 to 100, 0 is no effect, 100 is complete control
[11] = Preemergence, 62 g ai/ha, scale 0 to 100, 0 is no effect, 100 is complete control
[12] = Preemergence, 125 g ai/ha, scale 0 to 100, 0 is no effect, 100 is complete control
[13] = Preemergence, 250 g ai/ha, scale 0 to 100 (0 no effect, 100 complete control)
[14] = Postemergence, 31 g ai/ha, 0 to 100 scale (0 no effect, 100 complete control)
[15] = Postemergence, 125 g ai/ha, scale 0 to 100, 0 is no effect, 100 is complete control
[16] = Postemergence, 250 g ai/ha, scale 0 to 100, 0 no effect, 100 complete control, 13 to 15 d
[17] = postemergence, 62 g ai/ha, scale 0 to 100, 0 no effect, 100 complete control
[18] = Postemergence, 125 g ai/ha, visual rating after approx. 10 d, 0 to 100 scale (0 no effect, 100 complete control)
[19] = Postemergence, 500 g ai/ha, 0 to 100 scale, 0 is no effect, 100 is complete control
[20] = Preemergence, 125 g ai/ha, 0 to 100 scale where 0 is no effect and 100 is complete control
[21] = Preemergence, 500 g ai/ha, 0 to 100 scale, 0 no effect, 100 complete control
[22] = Postemergence, 125 g ai/ha, 0 to 100 scale where 0 is no effect and 100 is complete control

With `Cc1ccc2sc(C)c(-c3c(O)c(C)nn(C)c3=O)c2c1` [Compound 1, 4-(2,5-dimethylbenzo[b]thien-3-yl)-5-hydroxy-2,6-dimethyl-3(2H)-pyridazinone] the “Plant response rating, Nutsedge, Yellow” value [1, 10] was 40, the “Plant response rating, Nutsedge, Yellow” value [1, 11] was 35 and the “Plant response rating, Nutsedge, Yellow” value [1, 12] was 70. For the same molecule, the “Nutsedge, Yellow plant response rating” value [1, 13] was 75, the “Lambsquarters plant response rating” value [2, 14] was 85 and the “Plant response rating, Lambsquarters” value [2, 15] was 100. For the same molecule, the “Plant response rating, Lambsquarters” value [2, 16] was 100, the “Plant response rating, Lambsquarters” value [2, 10] was 80 and the “Plant response rating, Lambsquarters” value [2, 11] was 95. The “Plant response rating, Lambsquarters” value [2, 12] was 100, the “Lambsquarters plant response rating” value [2, 13] was 100 and the “Lambsquarters plant response rating” value [2, 17] was 100. The “Ryegrass, Italian plant response rating” value [3, 14] was 80, the “Plant response rating, Ryegrass, Italian” value [3, 15] was 95 and the “Plant response rating, Ryegrass, Italian” value [3, 16] was 98. For the same molecule, the “Plant response rating, Ryegrass, Italian” value [3, 10] was 95, the “Plant response rating, Ryegrass, Italian” value [3, 11] was 100 and the “Plant response rating, Ryegrass, Italian” value [3, 12] was 100. The “Ryegrass, Italian plant response rating” value [3, 13] was 100, the “Ryegrass, Italian plant response rating” value [3, 17] was 90 and the pest or weed control at 1000 g/ha ([4]; post-emergence, Postemergence, 0 to 100 scale, 0 is no effect, 100 is complete control, read-out: Foxtail, Giant plant response rating) was 80%. For the same molecule, the pest or weed control at 1000 g/ha ([4]; pre-emergence, Preemergence, 0 to 100 scale, 0 no effect, 100 complete control, read-out: Plant response rating, Foxtail, Giant) was 100%, the pest or weed control at 1000 g/ha ([5]; post-emergence, Postemergence, 0 to 100 scale, 0 is no effect, 100 is complete control, read-out: Pigweed plant response rating) was 100% and the pest or weed control at 1000 g/ha ([5]; pre-emergence, Preemergence, 0 to 100 scale, 0 no effect, 100 complete control, read-out: Plant response rating, Pigweed) was 100%. It also gave a plant injury at 1000 g/ha ([6]; post-emergence, Postemergence, 0 to 100 scale, 0 is no effect, 100 is complete control, read-out: Wheat plant response rating) of 0%, a plant injury at 1000 g/ha ([6]; pre-emergence, Preemergence, 0 to 100 scale, 0 no effect, 100 complete control, read-out: Plant response rating, Wheat) of 0% and a plant injury at 1000 g/ha (corn (Zea mays); Zea mays, post-emergence, 240 h, Postemergence, 1000 g ai/ha, 0 to 100 scale, 0 is no effect, 100 is complete control, read-out: Corn plant response rating) of 40%. It also gave a Corn plant response rating (crop injury, 0 = no effect, 100 = complete kill) at 1000 g/ha (corn (Zea mays); Zea mays, pre-emergence, 240 h, Preemergence, 1000 g ai/ha, 0 to 100 scale, 0 no effect, 100 complete control) of 0%, a pest or weed control at 1000 g/ha ([7]; post-emergence, Postemergence, 0 to 100 scale, 0 is no effect, 100 is complete control, read-out: Barnyardgrass plant response rating) of 90% and a pest or weed control at 1000 g/ha ([7]; pre-emergence, Preemergence, 0 to 100 scale, 0 no effect, 100 complete control, read-out: Plant response rating, Barnyardgrass) of 90%.
With `CC(=O)Oc1c(C)nn(C)c(=O)c1-c1c(C)sc2ccc(C)cc12` [Compound 25] the “Nutsedge, Yellow plant response rating” value [1, 14] was 65, the “Plant response rating, Nutsedge, Yellow” value [1, 15] was 90 and the “Plant response rating, Nutsedge, Yellow” value [1, 16] was 90. The “Plant response rating, Nutsedge, Yellow” value [1, 10] was 40, the “Plant response rating, Nutsedge, Yellow” value [1, 11] was 30 and the “Plant response rating, Nutsedge, Yellow” value [1, 12] was 70. For the same molecule, the “Nutsedge, Yellow plant response rating” value [1, 13] was 80, the “Nutsedge, Yellow plant response rating” value [1, 17] was 75 and the “Lambsquarters plant response rating” value [2, 14] was 90. For the same molecule, the “Plant response rating, Lambsquarters” value [2, 15] was 98, the “Plant response rating, Lambsquarters” value [2, 16] was 98 and the “Plant response rating, Lambsquarters” value [2, 10] was 80. The “Plant response rating, Lambsquarters” value [2, 11] was 85, the “Plant response rating, Lambsquarters” value [2, 12] was 85 and the “Lambsquarters plant response rating” value [2, 13] was 95. The “Lambsquarters plant response rating” value [2, 17] was 95, the “Ryegrass, Italian plant response rating” value [3, 14] was 70 and the “Plant response rating, Ryegrass, Italian” value [3, 15] was 90. For the same molecule, the “Plant response rating, Ryegrass, Italian” value [3, 16] was 95, the “Plant response rating, Ryegrass, Italian” value [3, 10] was 90 and the “Plant response rating, Ryegrass, Italian” value [3, 11] was 95. The “Plant response rating, Ryegrass, Italian” value [3, 12] was 95, the “Ryegrass, Italian plant response rating” value [3, 13] was 95 and the “Ryegrass, Italian plant response rating” value [3, 17] was 85. For the same molecule, the “Plant response rating, Ragweed” value [8, 18] was 100, the “Ragweed plant response rating” value [8, 19] was 100 and the “Ragweed plant response rating” value [8, 20] was 90. The “Plant response rating, Ragweed” value [8, 21] was 100, the “Plant response rating, Foxtail, Giant” value [4, 18] was 90 and the “Foxtail, Giant plant response rating” value [4, 19] was 90. The “Foxtail, Giant plant response rating” value [4, 20] was 90, the “Plant response rating, Foxtail, Giant” value [4, 21] was 90 and the “Plant response rating, Pigweed” value [5, 18] was 90. The “Pigweed plant response rating” value [5, 19] was 100, the “Pigweed plant response rating” value [5, 20] was 100 and the “Plant response rating, Pigweed” value [5, 21] was 100. For the same molecule, the “Plant response rating, Wheat” value [6, 22] was 0, the “Wheat plant response rating” value [6, 19] was 0 and the “Plant response rating, Kochia” value (kochia (Kochia scoparia); [18]) was 100. For the same molecule, the “Kochia plant response rating” value (kochia (Kochia scoparia); [19]) was 100, the “Kochia plant response rating” value (kochia (Kochia scoparia); [20]) was 90 and the “Plant response rating, Kochia” value (kochia (Kochia scoparia); [21]) was 100. The “Plant response rating, Corn” value (corn (Zea mays); [18]) was 0, the “Corn plant response rating” value (corn (Zea mays); [19]) was 20 and the “Plant response rating, Barnyardgrass” value [7, 18] was 20. The “Barnyardgrass plant response rating” value [7, 19] was 90, the “Barnyardgrass plant response rating” value [7, 20] was 30 and the “Plant response rating, Barnyardgrass” value [7, 21] was 90. The “Plant response rating, Ryegrass, Italian” value [9, 22] was 100, the “Ryegrass, Italian plant response rating” value [9, 19] was 100 and the “Ryegrass, Italian plant response rating” value [9, 20] was 100. The “Plant response rating, Ryegrass, Italian” value [9, 21] was 100.

Reference: patent US10597388B2, “Pyridazinone herbicides” (FMC CORPORATION, priority 2014, dated 2020)
